The assay relates to SARS-CoV-2. The format is cell-based. Particulars: concentration reducing replication to 50% vs control, read-out: Antiviral activity.

For `CCC(C)C1OC2(CCC1C)CC1CC(CC=C(C)C(OC3CC(OC)C(OC4CC(OC)C(O)C(C)O4)C(C)O3)C(C)C=CC=C3COC4C(=NO)C(C)CC(C(=O)O1)C34O)O2` (centres unmarked) [Compound I-1], the IC50 was less than 1000 nM.
For `CCC(C)C1OC2(CCC1C)CC1CC(CC=C(C)C(OC3CC(OC)C(OC4CC(OC)C(O)C(C)O4)C(C)O3)C(C)C=CC=C3COC4C(=NOCC(=O)NC)C(C)=CC(C(=O)O1)C34O)O2` (centres unmarked) [Compound I-124] the value was less than 1000 nM.

These data come from patent EP4640688A1, “AVERMECTIN DERIVATIVE” (Meiji Seika Pharma Co., Ltd., priority 2022, dated 2024).
